IC50 data for twelve compounds are collected here from patent US11912723B2, “KRAS modulators and uses thereof” (Quanta Therapeutics, Inc., priority 2022, dated 2024).

In assay [1] the target is T1, GST-tagged KRAS G12D (2-169) (Homo sapiens, UniProt P01116, G12D).
T1 construct: GST-tagged KRAS^G12D (2-169, Reaction Biology, MSC-11-539); purchased Reaction Biology MSC-11-539 (KRAS G12D); MSC-11-502 (SOS1cat)
The assay is described as follows: Nucleotide exchange assay (NEA), HTRF of SOS-mediated GTP-DY-647P1 binding. Conditions: 5 nM GST-KRAS G12D, 20 nM SOScat, 150 nM GTP; compound 1 h at RT. It is filed as biochemical. The source says: This activity is tightly regulated by GTPase activating proteins (GAPs) and guanine nucleotide exchange factors (GEFs). GEFs, such as SOS1/2, activate Ras proteins by exchanging GDP for GTP, thus returning Ras to its active conformation (Simanshu, Nissley, & McCormick, 2017). […] Homogenous time resolved fluorescence (HTRF) was used to detect SOS-mediated binding of a fluorescent GTP analog, GTP-DY-647P1 (Jena Biosciences NU-820-647P1) to GST-tagged KRAS^G12D (2-169, Reaction Biology, MSC-11-539).
GST-tagged KRAS^G12D (2-169) and anti-GST MAb Tb Cryptate Gold (CisBio 61GSTTLB) were diluted into assay buffer (20 mM HEPES, pH 7.3, 150 mM NaCl, 5 mM MgCl2, 0.05% BSA 0.0025% NP40, 1 mM DTT) to prepare a 2.5× donor solution. 5× compound was added to the protein mixture and incubated for 1 h at RT. 2.5× acceptor solution containing SOS1cat (564-1049, Reaction Biology MSC-11-502) and GTP-DY-647P1 were then added to the donor KRAS mixture such that the final concentration of the reaction contained 5 nM GST-tagged KRAS^G12D (2-169), 20 nM SOScat, and 150 nM GTP. The reaction was monitored using at RT with the Envision multimode plate reader (Ex/Em 337/665, […]) up to 90 minutes at 5 minute intervals. Data was blanked to reactions without SOS1 and % inhibition was calculated such that DMSO only=0% and blank=100%. Curve fitting was done using a 4 parameter fit. NEA KRAS G12D ID50 (uM) values of selected compounds are depicted in Table 2 with compounds having a value<0.01 uM as ++++; >0.01 uM to 0.1 uM as +++; >0.1 uM to 1 uM as ++; >1 uM to 20 uM as +; and >20 uM as NA.
Background: In TR-FRET formats the signal depends on donor and acceptor labels being close together.

The next assay concerns the target T2, KRAS G12D/RAF1 (Homo sapiens, UniProt P01116, G12D).
T2 construct: KRAS (1-169) proteins were expressed in E. coli at 18° C; His6-MBP (N, cleaved yes); made in house; host or cells: E. coli
The experiment in a line: Protein-protein interaction (PPI) HTRF assay KRAS G12D/RAF1. It is filed as binding. Conditions: KRAS G12D/RAF1, GppNHp-loaded KRAS; 30 minutes pre-incubation. As to the method:
Biotinylated KRAS wt and KRAS G12DNV proteins were expressed and purified in conditions similar to those previously reported (Tran, et al., 2021) (Zhang, et al., 2020). Briefly, KRAS (1-169) proteins were expressed in E. coli at 18° C. with an upstream TEV cleavage site (ENLFYQS) followed an Avi tag sequence ([…]). KIRAS expression constructs contained both a His6 and maltose-binding protein (MBP) tags at the N-terminus for Ni-NTA column purification prior to overnight TEV cleavage and MBP column purification. The avi-tagged NRAS expression construct contained both a His6 tag and SUMO cleavage sige at the N-terminus for Ni-NTA column purification followed by His-ULP1 digestion overnight. All avi-tagged RAS proteins were dialyzed into buffer containing ATP, biotin, and BirA followed by purification over a second Ni-NTA column and then run over a size exclusion HiLoad™ 26/600 Superdex™ column in 20 mM HEPES, pH 7.5, 300 mM NaCl, 5 mM MgCl2, and 1 mM TCEP. Fractions containing the protein of interest were pooled, concentrated, and confirmed by intact mass spectrometry. To prepare ‘GTP’ loaded KRAS and NRAS, biotinylated KRAS or NRAS was nucleotide exchanged from GDP-bound protein to GppNHp-bound (Jena Biosciences, NU-401-50) protein in the presence of alkaline phosphatase and excess GppNHp as previously described and the resulting nucleotide content was confirmed by HPLC reverse phase analytical chromatography (Donohue, et al., 2019) (Tran, et al., 2021).
His-tagged RAF1 (52-131) was similarly expressed in E. coli at 18° C. overnight with an upstream TEV cleavage site. His-tagged RAF1 expression construct contained both a His6 and MBP tags at the N-terminus for Ni-NTA column purification followed by MBP-tagged TEV digestion overnight. RAF1 protein samples were further purified over a MBP column followed by a Ni-NTA column and a second MBP column. The fractions containing the protein of interest were pooled, concentrated, and further purified over a HiLoad™ 16/600 Superdex™ 75 pg size exclusion column into 20 mM HEPES, pH8.0, 200 mM NaCl, 5 mM TCEP.
When RAS proteins are in the active GTP-bound conformation, they bind the effector protein RAF1 at the N-terminus Ras-binding domain (RBD, residues 52-131) (Tran, et al., 2021). Homogenous time resolved fluorescence (HTRF) was used to monitor the interaction between wt or mutant KRAS and RAF1 or wt NRAS and RAFT. Compounds were assayed in the presence of KRAS G12D/V and RAF1 versus wt KRAS to assess activity against mutant and w.t. KRAS. Similarly, compounds were then assayed in the presence of w.t. NRAS and RAF1 to assess RAS isoform selectivity. In all assay formats, His-tagged RAF1 protein was incubated with the HTRF donor, anti-6His Tb Cryptate gold (Cisbio 61DB10RDF), and biotinylated RAS proteins were incubated with the HTRF acceptor, streptavidin-d2 (CisBio 610SADLA). The intensity of the fluorescence signal emitted is proportional to binding between the two proteins. The donor solution was prepared by mixing 16 nM His-tagged RAF1 in protein dilution buffer with 1:100 anti-6His Tb cryptate in PPI-Terbium detection buffer. 16 nM biotinylated RAS protein was diluted into protein dilution buffer (50 mM Tris-HCl pH 7.5, 150 mM NaCl, 0.1 mM MgCl2, 1 mM TCEP, 0.005% Tween20) and mixed with 1:2000 Streptavidin-d2 diluted in PPI-Terbium detection buffer (CisBio 61DB10RDF). 50× compound in DMSO was mixed with 16 nM KRAS-acceptor solution and incubated for 30 minutes at room temperature. After compound pre-incubation with KRAS, the RAF1 donor solution was added to the KRAS-acceptor solution and incubated for 1 hour at room temperature. The fluorescence signal emitted was monitored at 665 nm and 615 nm using an Envision multimode plate reader. The HTRF ratio (665/615) was calculated and normalized to 0% inhibition in the absence of compound and 100% inhibition in the presence of untagged RAF1 protein. […]

T1 sequence (P01116 2-169 isoform P01116-2 G12D): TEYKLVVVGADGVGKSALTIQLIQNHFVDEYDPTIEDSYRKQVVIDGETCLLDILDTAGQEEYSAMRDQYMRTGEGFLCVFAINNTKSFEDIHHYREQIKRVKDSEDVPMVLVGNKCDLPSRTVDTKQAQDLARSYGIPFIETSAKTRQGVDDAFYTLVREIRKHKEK
T2 sequence (P01116 1-169 isoform P01116-2 G12D): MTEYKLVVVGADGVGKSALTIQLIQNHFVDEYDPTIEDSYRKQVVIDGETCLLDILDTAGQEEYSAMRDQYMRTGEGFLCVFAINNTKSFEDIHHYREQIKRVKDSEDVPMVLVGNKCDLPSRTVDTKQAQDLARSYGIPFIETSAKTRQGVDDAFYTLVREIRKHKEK

By IC50 is commonly meant the midpoint of a concentration-inhibition curve. With `O=C1NC(=O)C2(CCCN(c3nc(OC[C@@]45CCCN4C[C@H](F)C5)nc4c3COC3(CCc5ccc(O)cc53)C4)C2)N1` (mixture of isomers) [Compound 30, 9-[6′-hydroxy-2-[[rac-(2R,8S)-2-fluoro-1,2,3,5,6,7-hexahydropyrrolizin-8-yl]methoxy]spiro[5,8-dihydropyrano[4,3-d]pyrimidine-7,1′-indane]-4-yl]-1,3,9-triazaspiro[4.5]decane-2,4-dione], the results for the IC50 (in assay [1]; at KRAS G12D/RAF1) were 1 to 20 µM and more than 100 µM, respectively.

In the case of `C[C@@]1(O)CCCN(c2nc(OC[C@@]34CCCN3C[C@H](F)C4)nc3c2COC2(CCc4c(Cl)cccc42)C3)C1` (single isomer, unassigned) [Compound 23A, (3R)-1-[(7*)-4′-chloro-2-[[(2R,8S)-2-fluoro-1,2,3,5,6,7-hexahydropyrrolizin-8-yl]methoxy]spiro[5,8-dihydropyrano[4,3-d]pyrimidine-7,1′-indane]-4-yl]-3-methyl-piperidin-3-ol], the IC50 in assay [1] is 0.1 to 1 µM; on KRAS G12D/RAF1, more than 100 µM.

For the compound `O=C1NC(=O)[C@]2(CCCN(c3nc(OC[C@@]45CCCN4C[C@H](F)C5)nc4c3COC3(CCCc5c(Cl)cc(O)cc53)C4)C2)N1` (single isomer, unassigned) [Compound 51B, (5R)-9-[(7*)-5′-chloro-2-[[(2R,8S)-2-fluoro-1,2,3,5,6,7-hexahydropyrrolizin-8-yl]methoxy]-7′-hydroxy-spiro[5,8-dihydropyrano[4,3-d]pyrimidine-7,1′-tetralin]-4-yl]-1,3,9-triazaspiro[4.5]decane-2,4-dione], the figures for the IC50 (in assay [1]; against KRAS G12D/RAF1) were 0.01 to 0.1 µM and 10 to 100 µM, respectively.

For the compound `CN(C)C(=O)c1nn2c(c1Cl)CN(c1nc(OC[C@@]34CCCN3C[C@H](F)C4)nc3c1CN(C)[C@]1(CCCc4ccccc41)C3)CCC2` (single isomer, unassigned) [Compound 64B], the 50% inhibitory concentration (IC50) in assay [1] was 0.1 to 1 µM; at KRAS G12D/RAF1 it was more than 100 µM.

With `F[C@H]1CN2CCC[C@@]2(COc2nc3c(c(N4C[C@H]5CC[C@@H](C4)N5)n2)COC2(C3)c3ccccc3-c3n[nH]cc32)C1` (stereo partly drawn) [Compound 3, 4′-[(1R,5S)-3,8-diazabicyclo[3.2.1]octan-3-yl]-2′-[[(2R,8S)-2-fluoro-1,2,3,5,6,7-hexahydropyrrolizin-8-yl]methoxy]spiro[2H-indeno[1,2-c]pyrazole-4,7′-5,8-dihydropyrano[4,3-d]pyrimidine]], the values for the IC50 (in assay [1]; on KRAS G12D/RAF1) were 1 to 20 µM and more than 100 µM, respectively.

As to `Nc1ccc2c(c1)C1(CCC2)Cc2nc(OC[C@@]34CCCN3C[C@H](F)C4)nc(N3CCCC(O)CC3)c2CO1` (stereo partly drawn) [Compound 13, 1-[7′-amino-2-[[(2R,8S)-2-fluoro-1,2,3,5,6,7-hexahydropyrrolizin-8-yl]methoxy]spiro[5,8-dihydropyrano[4,3-d]pyrimidine-7,1′-tetralin]-4-yl]azepan-4-ol], the IC50 was in the range of 1 to 20 µM in assay [1] and 10 to 100 µM against KRAS G12D/RAF1.

`N#CCC1CCCN(c2nc(OC[C@@]34CCCN3C[C@H](F)C4)nc3c2COC2(CCc4c(Cl)cccc42)C3)CC1` (stereo partly drawn) [Compound 19, 2-(1-(4-chloro-2′-(((2R,7aS)-2-fluorotetrahydro-1H-pyrrolizin-7a(5H)-yl)methoxy)-2,3,5′,8′-tetrahydrospiro[indene-1,7′-pyrano[4,3-d]pyrimidin]-4′-yl)azepan-4-yl)acetonitrile]: the IC50 was 1 to 20 µM in assay [1] and more than 100 µM against KRAS G12D/RAF1.

Take `N#Cc1ccc2c(c1)C1(CCC2)Cc2nc(OC[C@@]34CCCN3C[C@H](F)C4)nc(N3CCCCCC3)c2CO1` (stereo partly drawn) [Compound 20, 4-(azepan-1-yl)-2-[[(2R,8S)-2-fluoro-1,2,3,5,6,7-hexahydropyrrolizin-8-yl]methoxy]spiro[5,8-dihydropyrano[4,3-d]pyrimidine-7,4′-tetralin]-6′-carbonitrile]: the IC50 in assay [1] was 1 to 20 µM; against KRAS G12D/RAF1 it was more than 100 µM.

Regarding `F[C@H]1CN2CCC[C@@]2(COc2nc3c(c(N4CCCCCC4)n2)COC2(COCc4ccccc42)C3)C1` (stereo partly drawn) [Compound 25, 4-(azepan-1-yl)-2-[[(2R,8S)-2-fluoro-1,2,3,5,6,7-hexahydropyrrolizin-8-yl]methoxy]spiro[5,8-dihydropyrano[4,3-d]pyrimidine-7,4′-isochromane]], the IC50 in assay [1] is 1 to 20 µM; on KRAS G12D/RAF1 it was more than 100 µM.

On to `CN(C)C(=O)c1cc2n(n1)CCCN(c1nc(OC[C@@]34CCCN3C[C@H](F)C4)nc3c1CO[C@]1(CCc4c(Cl)cccc41)C3)C2` [Compound 27A, 5-[(7S)-4′-chloro-2-[[(2R,8S)-2-fluoro-1,2,3,5,6,7-hexahydropyrrolizin-8-yl]methoxy]spiro[5,8-dihydropyrano[4,3-d]pyrimidine-7,1′-indane]-4-yl]-N,N-dimethyl-4,6,7,8-tetrahydropyrazolo[1,5-a][1,4]diazepine-2-carboxamide], for which the IC50 in assay [1] is 0.1 to 1 µM; against KRAS G12D/RAF1, more than 100 µM.

Take `CONC(=O)c1cc2n(n1)CCCN(c1nc(OC[C@@]34CCCN3C[C@H](F)C4)nc3c1CO[C@@]1(CCc4c(Cl)cccc41)C3)C2` [Compound 31, N-methoxy-5-[(7S)-4′-chloro-2-[[(2R,8S)-2-fluoro-1,2,3,5,6,7-hexahydropyrrolizin-8-yl]methoxy]spiro[5,8-dihydropyrano[4,3-d]pyrimidine-7,1′-indane]-4-yl]-4,6,7,8-tetrahydropyrazolo[1,5-a][1,4]diazepine-2-carboxamide]: the IC50 in assay [1] was 0.01 to 0.1 µM; against KRAS G12D/RAF1, more than 100 µM.

For the compound `CN(C)C(=O)c1cc2n(n1)CCCN(c1nc(OC[C@@]34CCCN3C[C@H](F)C4)nc3c1COC1(CCc4ccc(O)cc41)C3)C2` (stereo partly drawn) [Compound 32], the IC50 was 0.01 to 0.1 µM in assay [1] and more than 100 µM at KRAS G12D/RAF1.
